Marks after values point to notes of the source that are not given here.
Experiments:
DNA synthesis of liver = test: Liver DNA synthesis ([^3H] thymidine incorporation) in CCl4-intoxicated mice; type: in vivo; details: 72 h, SCS 50 mg/kg intragastrically daily for 4 days
Method: (§1) Female Balb/c mice (22-24 g) were maintained at 20° C. and a 12 hours light/dark cycle. The food and water allowed adliboti. Mice were randomly assigned to groups of 20 individuals. Twenty-four hours after the last dosing, animals were administered an oral dose of CCl4 (1%, v/v, in olive oil) at 1.0 mmol/kg. In treatment group, mice were treated intragastrically with SCS at daily dose of 50 mg/kg for 4 days. Control animals were given the vehicle (i.e. olive oil, 1 mL/kg). Twenty-four hours after intoxication, heparinized blood samples were drawn from ether-anesthetized mice by cardiac puncture, and the animals were killed by cardiac excision thereafter.
[^3H] thymidine (10 μCi/100 g body weight) was injected intraperitoneally and mice were killed 2 hours after the infection. Mice were killed at 12, 24, 36, 48, 72 and 120 hours and their livers were removed.
DNA synthesis was determined by the incorporation of [^3H] thymidice into the acid-insoluble fraction. The liver was homogenized in 4 volumes of distilled water. Two ml of homogenate were added to an equal volume of 10% trichloroacetic acid (TCA) solution and centrifuged at 900 g for 10 minutes. The resultant pellet was washed with 5% TCA twice and suspended again in 2 ml of 5% TCA solution. The suspension was incubated at 90° C. for 20 minutes and centrifuged at 900 g for 10 minutes. One ml of the supernatant was put into a scintillation vial and 10 ml of a toluene-based scintillation fluid containing DPO (0.4%), POPOP (0.01%), and Triton X-100 (30%) as added. The radioactivity was counted in a Packard Tri-Carb Liquid scintillation counter. The DNA content of the supernatant was assayed by the method of using calf thymus DNA as the standard.

complement = test: Effect of SCS on complement; type: in vivo, mice
Hepatoma = test: DNA synthesis of cancer cells ([^3H]TdR incorporation), hepatoma; type: in vivo, rats
Method: The method of animal and liver was described previously. Ascitric hepatoma, S180-ν, the transplantable 3924 used. After treatment with SCS (100 mg/kg), rats were injected with [^3H]-TdR (10 μc/μmole). Two hours after injection the animals were decapitated and examined. Livers and tumors were rapidly removed and blotted on filter paper. Tumors were carefully dissected free of necrotic, hemorrhagic, and nontumorous material. Tissues were minced with sharp scissors and 2 gm. DNA was prepared from the tissues. The radioactivity of the DNA was determined by liquid scintillation counting.
The incorporation of thymidine into DNA ws expressed as cpm/mg of DNA or cpm/gm of tissue.

[1] = system: Glutathione S-trasferase (GST); test: Liver GST activity in CCl4-intoxicated mice; type: in vivo
Method: as §1
(§2) The rats were starved overnight before decapitation. The livers were perfused in situ with ice-cold 1.15% KCl solution. Tissue homogenate was prepared by homogenizing 1 g of hepatic tissue sample in 10 mL ice-cold homogenizing buffer with two 10-secbursts of atissue disintegrator at 135,000 rpm. Hepatic mitochondrial fraction was prepared by differential centrifugation in isotonic buffer ([…], 0.1 mM EDTA, 5 mM Tris, pH 7.4).
Glutathione S-trasferase (GST) was determined. Total GST activity in the 105000 g supernatants of the liver homogenate was measured in 100 mM postassium-phosphate buffer (pH 6.5) containing 1 mM glutathione and 1 mM 1-chloro-2, 4-dinitrobenzene.

rats = test: Subacute toxicity, 30 days; type: in vivo
[2] = system: mitochondrion oxygen consumption; test: Mitochondrion oxygen consumption (respiratory control ratio) with TET; type: biochemical; details: TET 5 μl/L + SCS (100 μmol/L)
Method: (§3) In present study, the effect of SCS on ATP and oxygen consumption was examined. The experiments of animal and livers were performed as previously described.

[3] = system: ethanol-induced gastric mucosal damage; test: Ethanol-induced gastric mucosal damage; type: in vivo, rats
Method: The experiment of animal was performed as previously described. Mucosal damage in gastrointestinal tract was induced ethanol or indomethacin administration. In ethanol-treated animals, after 24 hours of fasting, ethanol was given orally (70%, v/v, 10 ml/kg) by means of an oral gastric. Mucosal damage was assessed by measurement of areas with hemorrhagic lesion. In the indomethacin ulcer model, rats were refed for 1 hour after 24 hours of fasting. Thirty minutes later, indomethacin (15 mg/kg) was administered subcutaneously and rats were killed 24 hours later. Mucosal lesions were again measured along the greatest diameter. […] SCS administration was repeated again 6 hours after indomethacin injection.

ATP = ATP concentration with TET; type: biochemical; details: TET 5 μl/L + SCS (100 μmol/L)
Method: as §3

Lipoperoxides = test: Liver lipoperoxides (MDA) after CCl4; type: in vivo, mice
Method: as §1, with “Twenty-four hours after intoxication, heparinized blood samples were drawn from ether-anesthetized mice by cardiac puncture, and the animals were killed by cardiac excision thereafter.” left out
The experiments were performed as previously described.
In the present study, the effect of SCS on lipoperoxides was examined.

[4] = system: NADPH-cytochrome Creductase; test: Hepatic microsomal monooxygenases: NADPH-cytochrome C reductase; type: in vivo; details: rat liver microsomes, treatment group
Glutathione (GSH) = test: Hepatic mitochondrial GSH level in CCl4-treated mice; type: in vivo; details: CCl4 + SCS
Method: as §1, §2
The experiments of animal and livers were performed as previously described. Glutathione (GSH) level was determined by an HPLC method. In the present study, the effect of SCS on GHS and GRD were examined.

Gastric cancer cells = test: Effect of SCS on p^53 mutations of cancer cells (PCR-SSCP); type: cell-based; details: Gastric cancer cells treated by SCS
[5] = system: Serum alamine aminotransferase (ALT); test: Serum ALT activity in CCl4-intoxicated mice; type: in vivo
Method: as §1
Animal section described as previously. Plasma was obtained by centrifugation. The whole blood at 2000×g at 4° C. Serum alamine aminotransferase (ALT) activity was determined by assay kit from Sigma Chemical Co.

[6] = intragastric route, 500 mg/kg daily, 30 consecutive days
[7] = rats, 500 mg/kg daily injected, 30 days

## COc1cc2c(c(OC)c1OC)-c1c(cc(OC)c(OC)c1OC)C[C@](C)(O)[C@@H](C)C2 [SCS, Schisandrin]
DNA synthesis of liver
  DNA synthesis (cpm/mg DNA): 9300 ± 940 cpm/mg DNA
complement; treatment group
  C.P.M.: 480 ± 51
complement; treatment versus control
  CPM of T/C: 194.3%
Hepatoma; Hepatoma T versus C
  Tissue inhibition rate (%): 56.4%
Hepatoma; Hepatoma T, SCS 100 mg/kg
  [^3H]TdR into DNA × 10^−3 cm/mg: 8.8 ± 0.80 × 10^−3 cm/mg
[1]; CCl4 + SCS, liver homogenate supernatant
  GST activity: 2.60 ± 0.28 μmol/mg protein
[1]; versus CCl4 control
  Inhibition of GST activity: 55.5%
rats; [6]
  Behavior of the animal: remained normal
  Liver and kidney function, histological picture of important organs: no abnormalities
rats; [7]
  Consumption of water, food and body weights versus control: did not show any differences
  Depressive, excitatory or sleepiness symptoms: no depressive, excitatory or sleepiness symptoms
  Microscopic inspection of stomach, liver, spleen and kidneys and their relative weights: no alteration
[2]
  RCR (respiratory control ratio): 12.5 ± 1.10
[3]; SCS 10 mg/kg
  Lesion area (mm^2) gastric antrum: 2.5 ± 0.35* mm^2
[3]; SCS 25 mg/kg
  Lesion area (mm^2) gastric antrum: 2.0 ± 0.23** mm^2
[3]; SCS 50 mg/kg
  Lesion area (mm^2) gastric antrum: 1.7 ± 0.20** mm^2
ATP
  ATP: 35.8 ± 4.0* 100 μmol/L
Lipoperoxides; 1 h
  Lipoperoxides (mmol MDA/g liver protein): 0.70 ± 0.07 mmol MDA/g liver protein
  Lipoperoxides T/C: 87%
Lipoperoxides; 3 h
  Lipoperoxides (mmol MDA/g liver protein): 0.65 ± 0.069 mmol MDA/g liver protein
  Lipoperoxides T/C: 72%
Lipoperoxides; 6 h
  Lipoperoxides (mmol MDA/g liver protein): 0.60 ± 0.70 mmol MDA/g liver protein
  Lipoperoxides T/C: 55%
Lipoperoxides; 12 h
  Lipoperoxides (mmol MDA/g liver protein): 0.52 ± 0.60 mmol MDA/g liver protein
  Lipoperoxides T/C: 40%
Lipoperoxides; 24 h
  Lipoperoxides (mmol MDA/g liver protein): 0.50 ± 0.58 mmol MDA/g liver protein
  Lipoperoxides T/C: 22%
[4]
  NADPH-cytochrome Creductase: 202.5 ± 22 nmol/mg protein
Glutathione (GSH)
  GSH: 21.8 ± 2.0 nmol/mg protein
Gastric cancer cells
  Frequency of p^53 mutations (%): 10%
[5]; CCl4 + SCS, serum, mice, SCS 50 mg/kg intragastrically daily for 4 days
  ALT (X ± S): 68.8 ± 7.0 U L^−1
[5]; CCl4 mice, versus control
  CCl4 toxicity decreased by SCS (ALT): 87.9%

Source: patent publication US6605305B2, “Plant drug for treatment of liver disease” (priority 2001, dated 2003)
